Results taken from patent US10689378B2, “Triazolopyridine compounds and uses thereof” (Novartis AG, priority 2016, dated 2020).
Where two headings read alike, the source gives them in different places.

Key:
[1] = target: wild type PRC2 (wtPRC2) complex (Homo sapiens, UniProt O75530); assay: EED LC-MS assay (SAH production by PRC2); format: biochemical
Method: Compounds of the present invention were assessed for their ability to inhibit PRC2 activity in a pentameric complex of EZH2, SUZ12, EED, Rbap48 and AEBP in biochemical assays. The ability of compounds of the present invention to inhibit cellular activity of PRC2 was assessed by analysing histone H3 lysine 27 methylation in human cell lines. The ability of compounds of the present invention to inhibit cancers was derived from their ability to modulate activity in human cancer cell lines bearing specific dependence to PRC2 activity to maintain cancerous growth.
Representative compounds of the present invention were serially and separately diluted 3-fold in DMSO to obtain a total of eight or twelve concentrations. Then the test compounds at each concentration (120 nL of each) were transferred by Mosquito into a 384-well Perkin Elmer ProxiPlate 384 plus plates. Solutions (6 μL) of 24 nM the wild type PRC2 (wtPRC2) complex and 2 μM SAM in reaction buffer (20 mM Tris, pH 8.0, 0.1% BSA, 0.01% Triton, 0.5 mM DTT) were added to the wells that were then incubated with the test compound for 20 min. A 6 μL solution of 3 μM of the peptide substrate H3K27Me0 (histone H3[21-44]-biotin) in reaction buffer was added to initiate each reaction. The final components in the reaction solution include 12 nM wtPRC2 complex, 1 μM SAM, and 1.5 μM H3K27me0 peptide with varying concentration of the compounds. A positive control consisted of the enzyme, 1 μM SAM and 1.5 μM substrate in the absence of the test compound, and a negative control consisted of 1 μM SAM and 1.5 μM substrate only. Each reaction was incubated at rt for 120 min, then stopped by addition of 3 μL per of quench solution (2.5% TFA with 320 nM d4-SAH). The reaction mixture was centrifuged (Eppendorf centrifuge 5810, Rotor A-4-62) for 2 min at 2000 rpm and read on an API 4000 triple quadrupole mass spec with Turbulon Spray (Applied Biosystem) coupled with Prominence UFLC (Shimadzu). The levels of SAH production were then normalized based on the values coming from the positive and negative controls to give percent enzyme activities. The data were then fit to a dose response equation using the program Helios to get the IC50 values of the test compound.

[2] = target: T1, EED (1-441)-His protein (Homo sapiens, UniProt O75530); assay: EED-H3K27Me3 peptide competition binding assay by AlphaScreen
T1 construct: 30 nM EED (1-441)-His protein
In short: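 Serially diluted compound (12 points, 3-fold) incubated 20 min with 30 nM EED(1-441)-His and 15 nM biotin-H3K27Me3(19-33) peptide in 25 mM HEPES pH 8, 0.02% Tween-20, 0.5% BSA. Ni-chelate acceptor/streptavidin donor beads (10 μg/mL each) added, 1 h rt dark; 615 nm emission normalized to controls, dose-response fit for IC50.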

[3] = system: H3K27 methylation in G401 cell; assay: ELISA (H3K27 methylation) assay in G401 cells; format: cell-based, human; details: Homo sapiens
In short: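 IC50 from dose-response fit of percent inhibition relative to DMSO, using H3K27me3/me2 ELISA signal (ECL) normalized to histone H3. Histones HCl-extracted after 48 h compound exposure of G401 cells at up to 20 μM, 8- or 12-point 3-fold series.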

[4] = read-out: (b) IC50, EED LC-MS Qualified
[5] = read-out: (a) IC50, EED Alphascreen binding Qualified
[6] = G-401, read-out: (c) IC50, ELISA Qualified
[7] = PRC2 LC-MS assay, read-out: (b) IC50 EED LC-MS Qualified
[8] = EED-H3K27Me3 peptide competition, AlphaScreen, read-out: (a) IC50 EED Alphascreen binding Qualified
[9] = G-401, H3K27 methylation ELISA, read-out: (c) IC50 ELISA Qualified
[10] = read-out: (b) IC50 EED LC-MS Qualified
[11] = read-out: (a) IC50 EED Alphascreen binding Qualified
[12] = G-401, read-out: (c) IC50 ELISA Qualified

wild type PRC2 (wtPRC2) complex, sequence (O75530 whole entry): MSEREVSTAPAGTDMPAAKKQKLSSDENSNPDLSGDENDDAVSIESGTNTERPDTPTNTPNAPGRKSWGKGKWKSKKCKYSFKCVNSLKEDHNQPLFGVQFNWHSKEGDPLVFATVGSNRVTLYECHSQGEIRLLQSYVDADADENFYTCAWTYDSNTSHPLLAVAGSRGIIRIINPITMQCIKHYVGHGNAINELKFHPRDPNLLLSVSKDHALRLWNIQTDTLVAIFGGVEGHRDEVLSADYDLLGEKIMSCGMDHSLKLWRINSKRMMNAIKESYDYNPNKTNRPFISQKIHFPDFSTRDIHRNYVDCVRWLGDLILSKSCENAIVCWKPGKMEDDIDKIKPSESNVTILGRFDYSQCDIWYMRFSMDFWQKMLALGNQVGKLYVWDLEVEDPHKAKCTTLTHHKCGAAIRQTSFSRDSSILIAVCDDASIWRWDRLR
wild type PRC2 (wtPRC2) complex, sequence (Q15910 whole entry partner): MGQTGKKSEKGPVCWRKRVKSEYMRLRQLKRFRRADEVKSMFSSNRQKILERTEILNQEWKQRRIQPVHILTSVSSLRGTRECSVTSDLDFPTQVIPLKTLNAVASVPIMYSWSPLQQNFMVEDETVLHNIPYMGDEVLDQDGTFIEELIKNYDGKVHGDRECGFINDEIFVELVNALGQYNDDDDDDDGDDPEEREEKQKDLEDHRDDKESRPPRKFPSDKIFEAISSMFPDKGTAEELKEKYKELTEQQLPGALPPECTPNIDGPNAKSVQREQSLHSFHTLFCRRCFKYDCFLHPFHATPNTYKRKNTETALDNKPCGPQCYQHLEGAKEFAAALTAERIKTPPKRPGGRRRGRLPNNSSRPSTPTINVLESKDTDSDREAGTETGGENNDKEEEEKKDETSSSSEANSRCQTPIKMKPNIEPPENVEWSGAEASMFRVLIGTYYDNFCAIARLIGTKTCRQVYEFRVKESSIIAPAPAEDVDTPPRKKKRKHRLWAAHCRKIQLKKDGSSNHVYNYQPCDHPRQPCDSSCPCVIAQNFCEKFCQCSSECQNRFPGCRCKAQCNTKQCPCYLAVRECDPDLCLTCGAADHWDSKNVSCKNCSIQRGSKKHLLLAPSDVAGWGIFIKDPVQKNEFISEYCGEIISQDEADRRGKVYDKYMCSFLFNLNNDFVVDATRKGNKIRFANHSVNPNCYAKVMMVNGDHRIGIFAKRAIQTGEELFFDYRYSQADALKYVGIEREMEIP
wild type PRC2 (wtPRC2) complex, sequence (Q15022 whole entry partner): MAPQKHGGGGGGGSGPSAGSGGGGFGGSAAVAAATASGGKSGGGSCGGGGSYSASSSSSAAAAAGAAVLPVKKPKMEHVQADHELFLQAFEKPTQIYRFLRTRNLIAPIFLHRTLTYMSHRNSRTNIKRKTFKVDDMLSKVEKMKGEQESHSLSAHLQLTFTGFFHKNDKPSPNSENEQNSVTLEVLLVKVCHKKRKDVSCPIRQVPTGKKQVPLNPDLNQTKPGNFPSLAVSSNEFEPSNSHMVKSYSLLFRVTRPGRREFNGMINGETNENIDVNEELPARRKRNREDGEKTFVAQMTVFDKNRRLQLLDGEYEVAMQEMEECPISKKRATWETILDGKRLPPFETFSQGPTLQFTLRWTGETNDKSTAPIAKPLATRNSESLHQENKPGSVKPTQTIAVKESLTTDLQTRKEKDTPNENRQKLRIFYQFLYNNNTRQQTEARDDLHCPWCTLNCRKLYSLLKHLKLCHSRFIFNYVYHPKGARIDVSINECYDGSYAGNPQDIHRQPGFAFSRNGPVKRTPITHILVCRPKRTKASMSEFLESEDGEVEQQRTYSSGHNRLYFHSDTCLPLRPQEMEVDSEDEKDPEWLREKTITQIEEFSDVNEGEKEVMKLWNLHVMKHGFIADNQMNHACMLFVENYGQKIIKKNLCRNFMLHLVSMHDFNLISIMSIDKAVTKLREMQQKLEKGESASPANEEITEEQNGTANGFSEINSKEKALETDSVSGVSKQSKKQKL
wild type PRC2 (wtPRC2) complex, sequence (Q09028 whole entry partner): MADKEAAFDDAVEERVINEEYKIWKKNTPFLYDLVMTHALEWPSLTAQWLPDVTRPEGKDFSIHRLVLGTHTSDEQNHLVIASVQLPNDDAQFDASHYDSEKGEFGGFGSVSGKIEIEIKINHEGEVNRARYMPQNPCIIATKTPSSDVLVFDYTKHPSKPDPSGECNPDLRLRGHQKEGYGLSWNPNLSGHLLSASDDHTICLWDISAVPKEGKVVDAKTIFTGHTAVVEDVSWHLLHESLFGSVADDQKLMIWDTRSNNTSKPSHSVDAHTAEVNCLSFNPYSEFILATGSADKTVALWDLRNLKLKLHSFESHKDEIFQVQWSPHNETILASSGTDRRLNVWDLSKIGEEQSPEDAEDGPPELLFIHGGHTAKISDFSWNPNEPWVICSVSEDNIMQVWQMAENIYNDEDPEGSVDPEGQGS
wild type PRC2 (wtPRC2) complex, sequence (Q6ZN18 whole entry partner): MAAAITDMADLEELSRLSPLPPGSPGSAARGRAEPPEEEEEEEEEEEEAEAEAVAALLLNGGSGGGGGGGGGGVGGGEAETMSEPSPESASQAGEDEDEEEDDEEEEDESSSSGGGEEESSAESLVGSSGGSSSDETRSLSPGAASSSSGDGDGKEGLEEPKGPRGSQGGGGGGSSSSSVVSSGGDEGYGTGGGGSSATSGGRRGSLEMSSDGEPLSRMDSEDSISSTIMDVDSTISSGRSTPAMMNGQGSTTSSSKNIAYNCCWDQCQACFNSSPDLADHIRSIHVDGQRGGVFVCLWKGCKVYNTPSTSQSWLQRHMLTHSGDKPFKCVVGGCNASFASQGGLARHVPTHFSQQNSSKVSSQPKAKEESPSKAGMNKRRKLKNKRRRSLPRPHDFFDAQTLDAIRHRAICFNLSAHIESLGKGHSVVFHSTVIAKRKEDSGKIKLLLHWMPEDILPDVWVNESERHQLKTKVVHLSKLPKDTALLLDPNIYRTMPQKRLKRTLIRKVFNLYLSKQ
T1 sequence (O75530 whole entry): as the sequence (O75530 whole entry) above

SMILES	IC50 [1, 7] [nM]	IC50 [2, 8] [nM]	IC50 [3, 9] [nM]	other results
COc1ccccc1CNc1ccc(-c2ccc(S(=O)(=O)N3CCCC3)cc2)c2nncn12 [Example 68, N-(2-methoxybenzyl)-8-(4-(pyrrolidin-1-ylsulfonyl)phenyl)-[1,2,4]triazolo[4,3-a] pyridin-5-amine]				IC50 [1, 4]: 311 nM; IC50 [2, 5]: 16.7 nM; IC50 [3, 6]: 49.7 nM
COc1ccccc1CNc1ccc(-c2ccc(S(=O)(=O)NCCO)cc2)c2nncn12 [Example 101, N-(2-hydroxyethyl)-4-(5-((2-methoxybenzyl)amino)-[1,2,4]triazolo[4,3-a]pyridin-8-yl)benzenesulfonamide]				IC50 [1, 4]: 2580 nM; IC50 [2, 5]: 50.1 nM; IC50 [3, 6]: 102 nM
COc1cccc(F)c1CNc1ccc(-c2cncnc2C(C)C)c2nncn12 [Example 273, N-(2-fluoro-6-methoxybenzyl)-8-(4-isopropylpyrimidin-5-yl)-[1,2,4] triazolo[4,3-a]pyridin-5-amine]	99.7	69	61.3	
COc1ncccc1CNc1ccc(-c2ccc(CN(C)C)cc2)c2nncn12 [Example 374, 8-(4-((dimethylamino)methyl)phenyl)-N-((2-methoxypyridin-3-yl)methyl)-[1,2,4]triazolo[4,3-a] pyridin-5-amine]				IC50 [1, 10]: 144 nM; IC50 [2, 11]: 58.3 nM; IC50 [3, 12]: 46.7 nM
COc1ccccc1CNc1ccc(-c2ccc(CN(C)C)cc2F)c2nncn12 [Example 70, 8-(4-((dimethylamino)methyl)-2-fluorophenyl)-N-(2-methoxybenzyl)-[1,2,4] triazolo[4,3-a]pyridin-5-amine]				IC50 [1, 4]: 188 nM; IC50 [2, 5]: 37.6 nM; IC50 [3, 6]: 334 nM
COc1cccc(F)c1CNc1ccc(-c2ccc(C(=O)N(C)C)cc2)c2nncn12 [Example 206, 4-(5-((2-fluoro-6-methoxybenzyl)amino)-[1,2,4]triazolo[4,3-a]pyridin-8-yl)-N,N-dimethylbenzamide]	48	24	24.1	
COc1ccccc1CNc1ccc(-c2ccc(N3CCN(C)CC3C)nc2)c2nncn12 (stereo not drawn) [Example 180, 8-(6-(2,4-dimethylpiperazin-1-yl)pyridin-3-yl)-N-(2-methoxybenzyl)-[1,2,4] triazolo[4,3-a]pyridin-5-amine]	171	55.7	57.9	
COc1cccc(F)c1CNc1ccc(-c2cccnc2C(F)F)c2nncn12 [Example 265, 8-(2-(difluoromethyl)pyridin-3-yl)-N-(2-fluoro-6-methoxybenzyl)-[1,2,4] triazolo[4,3-a]pyridin-5-amine]	6.3	14.1	7.1	
COc1cccc(F)c1CNc1ccc(-c2cncc(C(=O)N(C)C)c2)c2nncn12 [Example 195, 5-(5-((2-fluoro-6-methoxybenzyl)amino)-[1,2,4]triazolo[4,3-a]pyridin-8-yl)-N,N-dimethylnicotinamide]	61.3	17.6	8	
COc1cccc(F)c1CNc1ccc(-c2ncnn2C)c2nncn12 [Example 356, N-(2-fluoro-6-methoxybenzyl)-8-(1-methyl-1H-1,2,4-triazol-5-yl)-[1,2,4] triazolo[4,3-a]pyridin-5-amine]				IC50 [1, 10]: 117 nM; IC50 [2, 11]: 19 nM; IC50 [3, 12]: 14 nM
COc1cccc(F)c1CNc1ccc(-c2ccc(N3CCOCC3)nc2C)c2nncn12 [Example 266, N-(2-fluoro-6-methoxybenzyl)-8-(2-methyl-6-morpholinopyridin-3-yl)-[1,2,4]triazolo[4,3-a]pyridin-5-amine]	56.2	8.9	9.9	
COc1cc(F)cc(F)c1CNc1ccc(-c2cncnc2C)c2nncn12 [Example 299, N-(2,4-difluoro-6-methoxybenzyl)-8-(4-methylpyrimidin-5-yl)-[1,2,4] triazolo[4,3-a]pyridin-5-amine]	66.6	27.6	11.9	
COc1cccc(F)c1CNc1ccc(-c2cnc(C)nc2OC)c2nncn12 [Example 372, N-(2-fluoro-6-methoxybenzyl)-8-(4-methoxy-2-methylpyrimidin-5-yl)-[1,2,4]triazolo[4,3-a]pyridin-5-amine]				IC50 [1, 10]: 118 nM; IC50 [2, 11]: 21.1 nM; IC50 [3, 12]: 33.8 nM
COc1cccc(F)c1CNc1ccc(-c2ccc(NS(C)(=O)=O)cc2)c2nncn12 [Example 105, N-(4-(5-((2-fluoro-6-methoxybenzyl)amino)-[1,2,4]triazolo[4,3-a]pyridin-8-yl)phenyl)methane sulfonamide]				IC50 [1, 4]: 281 nM; IC50 [2, 5]: 21.5 nM; IC50 [3, 6]: 43.3 nM
COc1cccc(F)c1CNc1ccc(-c2cncnc2C(F)F)c2nncn12 [Example 290, 8-(4-(difluoromethyl)pyrimidin-5-yl)-N-(2-fluoro-6-methoxybenzyl)-[1,2,4] triazolo[4,3-a]pyridin-5-amine]	33.2	30.7	4	
COc1cccc(F)c1CNc1ccc(-c2c(C)nn(C)c2C)c2nncn12 [Example 124, N-(2-fluoro-6-methoxybenzyl)-8-(1,3,5-trimethyl-1H-pyrazol-4-yl)-[1,2,4] triazolo[4,3-a]pyridin-5-amine]				IC50 [1, 4]: 64.5 nM; IC50 [2, 5]: 52.1 nM; IC50 [3, 6]: 24.7 nM
COc1cccc(F)c1CNc1ccc(-c2ccc(OCCS(C)(=O)=O)cc2)c2nncn12 [Example 169, N-(2-fluoro-6-methoxybenzyl)-8-(4-(2-(methylsulfonyl)ethoxy)phenyl)-[1,2,4]triazolo[4,3-a] pyridin-5-amine]				IC50 [1, 4]: 305 nM; IC50 [2, 5]: 84.5 nM; IC50 [3, 6]: 105 nM
COc1cccc(F)c1CNc1ccc(-c2cnn(C)c2CO)c2nncn12 [Example 336, (4-(5-((2-fluoro-6-methoxy benzyl)amino)-[1,2,4]triazolo[4,3-a]pyridin-8-yl)-1-methyl-1H-pyrazol-5-yl) methanol]	59.5	12.8	12.1	

Continued, in another order:

IC50 [1, 7] [nM]	IC50 [2, 8] [nM]	IC50 [3, 9] [nM]	SMILES	other results
14.9	21.6	12.1	COc1cccc(F)c1CNc1ccc(-c2cncnc2C)c2nncn12 [Example 221, N-(2-fluoro-6-methoxybenzyl)-8-(4-methylpyrimidin-5-yl)-[1,2,4] triazolo[4,3-a]pyridin-5-amine]	
172	41.6	52.8	COc1cccc(F)c1CNc1ccc(-c2c(C)n[nH]c2C)c2nncn12 [Example 187, 8-(3,5-dimethyl-1H-pyrazol-4-yl)-N-(2-fluoro-6-methoxybenzyl)-[1,2,4]triazolo[4,3-a] pyridin-5-amine]	
366	46.5	71.7	COc1cccc(F)c1CNc1ccc(-c2ccc(F)cc2C)c2nncn12 [Example 201, 8-(4-fluoro-2-methylphenyl)-N-(2-fluoro-6-methoxybenzyl)-[1,2,4]triazolo[4,3-a] pyridin-5-amine]	
20.9	6	6.7	COc1cccc(F)c1CNc1ccc(-c2ccc(CC#N)nc2C)c2nncn12 [Example 339, 2-(5-(5-((2-fluoro-6-methoxybenzyl)amino)-[1,2,4]triazolo[4,3-a]pyridin-8-yl)-6-methylpyridin-2-yl) acetonitrile]	
14	65.9	40.9	COc1cccc(F)c1CNc1ccc(-c2cn(C)nc2C)c2nncn12 [Example 186, 8-(1,3-dimethyl-1H-pyrazol-4-yl)-N-(2-fluoro-6-methoxybenzyl)-[1,2,4]triazolo[4,3-a] pyridin-5-amine]	
